In US10913732B2, “Furoxans as therapies for neurodegenerative disorders” (The University of Toledo, priority 2016, dated 2021):
Entries after “also recorded” stand apart in the source; their conditions may differ.

Key:
PC12 cells = assay: In vitro neuroprotection against oxygen glucose deprivation (OGD), MTT viability readout; type: cell-based; conditions: OGD 90 min, reoxygenation, furoxan 1, 10 or 25 μM, 24 hr
Description: (§1) FIGS. 3A-3C: Neuroprotection (FIG. 3A), MTT treatment was used to assess cell viability (FIG. 3B), and pCREB modulation (FIG. 3C) of furoxan compounds. Neuroprotection assay workflow: expose PC12 cells to oxygen glucose deprivation (OGD) for 90 min→reoxygenate and add furoxan (1, 10, or 25 μM)→incubate for 24 hr→MTT readout of viability. Data represented as mean and s.e.m. (n=3). *=p<0.05, **=p<0.01, ***=p<0.001 compared to vehicle control using one way ANOVA analysis with Dunnett's post-hoc test. Red dashed line indicates threshold of vehicle effects. For pCREB modulation, 31b (25 μM) was examined (PC-12 cells, 48 hr incubation) in the following: without insult, with OGD, L-NAME.
It has been shown that furoxans are protective against oxygen glucose deprivation (OGD), a commonly used cellular model of ischemic stroke. PC12 cells were submitted to OGD for 90 minutes followed by reoxygenation and treatment with varying concentrations of selected embodiments of compounds of Formula I (indicated in FIG. 3A). After 24 hr, MTT treatment was used to assess cell viability (FIG. 3B). […] It has been shown previously that 4-N-oxides release NO at a much slower rate than corresponding 2-N-oxides.

pCREB = pCREB modulation in PC-12 cells (without insult, with OGD, L-NAME); type: cell-based; conditions: 31b 25 μM, 48 hr incubation
Description: as §1

Male C57BL/6 mice = assay: Step-through passive avoidance (STPA), scopolamine-induced amnesia; type: in vivo
Description: FIGS. 4A-4B: STPA experimental timeline (FIG. 4A), and results of Male C57BL/6 mice administered either vehicle or 31b via i.p. injection at 60 min or 120 min prior to training in STPA (FIG. 4B). […] Memory retention was measured as latency to enter the dark compartment 24 h after training. Data represented as mean and s.e.m.
The STPA apparatus consisted of an acrylic box with an illuminated compartment connected to a darkened compartment by a small guillotine door. Mice were placed in the illuminated side and were trained against their natural tendency to translocate to the dark side using an aversive stimulus (shock via electrified floor grading). Memory consolidation is measured as the latency times to enter the dark compartment 24 hr after training.
All procedures were performed under the approved IACUC protocol #108451. Male C57BL/6 mice (Envigo), N=9 per group, were habituated at the animal facility for at least 14 days. Ear tags were applied and animals weighed. 2 hr prior to the drug adminstration the mice were individually acclimated to the illuminated compartment to assess tendency to enter the dark chamber (measured in seconds). In this phase no shock was be delivered. […] The mice were then administered either vehicle (95 [0.9% NaCl]:5 [DMSO]) or 31b (0.1, 1, 10, or 20 mg/kg) via i.p. injection (50 μL) at 1 h or 2 h prior to training. […] Mice were individually placed into the light compartment and upon translocation to the dark compartment the guiltine door closed and the mice were trained by delivering a mild adversive stimulus (0.5 mA) via the electrified floor grading of the dark chamber. Each mouse was held in the dark chamber for 30 seconds, then returned to their cage for 120 seconds before the second training session. […] Memory retention was measured 24 hours after training by placing the same mouse in the light chamber and measuring latency to enter the dark chamber (no aversive stimulus is delivered during the retention test). Data was analyzed by one way ANOVA analysis with Dunnett's post-hoc test.

Mice = assay: Permanent middle carotid artery occlusion (pMCAO) model of stroke; type: in vivo
Description: FIGS. 9A-9E: Evaluation of the furoxan 31b. […] Latency to fall was normalized to 4 h post-infarct mean for each group and is represented as mean and s.e.m. (n=12). Analyzed using one way ANOVA analysis with Tukey's post-hoc test. […] Each of the seven tests included in the 28-point NDS was graded from 0-4, with higher scores indicating severe deficits (n=12). Compared using unpaired t-test. […] Compared using unpaired t-test. For all data, *=p<0.05, **=p<0.01, ***=p<0.001.
31b (20 mg/kg, i.p.) was administered once daily for 6 days beginning 12 hr after permanent MCAO (pMCAO, FIG. 9A). pMCAO was chosen rather than 2-VO because pMCAO is much simpler and more reliable (pMCAO-no loss of animals vs 2-VO˜30% lethality 7 days post-op). Ultimately, this model allowed for the provision of evidence of neuroprotective efficacy and effect on BDNF.
Locomotor activity was evaluated by means of a rotarod task by a person blinded to the treatment groups. Mice were placed on a horizontal rod (Columbus Instruments, OH) that was made to rotate at 1 rpm with an acceleration rate of 1 rpm every 10 s until the animal fell from the rod. Each animal was tested three times per trial. All the animals were trained on the rotarod assembly prior to surgery. The duration for which each animal was able to stay on the accelerating rod was recorded as the latency to fall and registered manually. Locomotor activity was monitored 4 h before, 24 h, postsurgery and 7 days after p-MCAO surgery Grip strength was evaluated by holding the mice by tails and placing their forelimbs on a specially designed pull bar assemblies (Grip strength meter, Columbus Instruments, OH). […] Each animal was tested three times per trial at 4 h before, 2 and 7 days after p-MCAO surgery. NDS were evaluated by an optimized 28-point score pattern. A person blinded to the treatment evaluated NDS 7 days after p-MCAO; the evaluation included both sensory and motor deficits, such as body symmetry, gait, climbing, circling behavior, front limb symmetry, compulsory circling, and whisker response. Each of the seven tests included in the 28-point NDS was graded from 0 to 4, with higher scores indicating severe deficits. Animals from all the groups were euthanized 7 days after p-MCAO. Brains were dissected out and sliced into five 2-mm-thick coronal sections before incubating in 1% triphenyltetrazolium chloride (TTC) (Sigma Co., MI). The infarct area was estimated from five slices of each brain, measuring rostral and caudal sides of each individual slice in conjunction with the thickness and expressed as a percentage of the volume of the contralateral hemisphere. A person blinded to the treatment groups measured the infarct volume with the help of ImageJ software provided by NIH.

[1] = 20 mg/kg i.p. once daily for 6 days beginning 12 hr after pMCAO, day 7

SMILES: CC1CCN(Cc2no[n+]([O-])c2-c2ccc(F)cc2)CC1 [31b]
- Neuroprotection against OGD (cell viability by MTT) (PC12 cells): concentration dependent protection; also recorded: outperform the corresponding 2-N-oxides
- Effects of NOS inhibition on pCREB (pCREB): reverses the effects of NOS inhibition on pCREB
- Latency to enter the dark compartment (Male C57BL/6 mice; 20 mg/kg i.p. 2 hr prior to training, scopolamine 1 mg/kg i.p. 30 min prior to training, 24 hr after training): 237 s
- Reversal of scopolamine induced amnesia / memory impairment in STPA (Male C57BL/6 mice; mice, i.p., scopolamine 1 mg/kg): reverses scopolamine induced memory impairment; also recorded: capable of reversing scopolamine induced amnesia
- Infarct volume reduction (Mice; 20 mg/kg i.p. once daily for 6 days after pMCAO, TTC staining, p=0.11): ~30%
- BDNF levels relative to control animals (Mice; 20 mg/kg i.p. once daily for 6 days after pMCAO, WB, p=0.07): double the levels of control animals
- Behavioral functional recovery, neurologic deficit scoring (NDS) (Mice; [1]): reverses neurologic deficit; also recorded: significant improvement
- Behavioral functional recovery, rotarod (Mice; [1]): improves rotarod performance; also recorded: significant improvement
